According to PubChem BioAssay (NCI):
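Five compound concentrations were applied to cells in 96-well plates for 48 hours; endpoints were derived by simple linear interpolation of the resulting dose-response curve. TGI marks complete inhibition of growth.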

How the values were obtained:
Assay in all cases: growth of human tumour cells (NCI), 48 h
786-0 renal = tested on: 786-0 renal
A498 renal = tested on: A498 renal
A549 NSCLC = tested on: A549 NSCLC
ACHN renal = tested on: ACHN renal
CAKI-1 renal = tested on: CAKI-1 renal
CCRF-CEM leukemia = tested on: CCRF-CEM leukemia
COLO 205 colon = tested on: COLO 205 colon
DU-145 prostate = tested on: DU-145 prostate
EKVX NSCLC = tested on: EKVX NSCLC
HCC-2998 colon = tested on: HCC-2998 colon
HCT-116 colon = tested on: HCT-116 colon
HCT-15 colon = tested on: HCT-15 colon
HL-60(TB) leukemia = tested on: HL-60(TB) leukemia
HOP-62 NSCLC = tested on: HOP-62 NSCLC
HOP-92 NSCLC = tested on: HOP-92 NSCLC
HS 578T breast = tested on: HS 578T breast
HT29 colon = tested on: HT29 colon
IGROV1 ovarian = tested on: IGROV1 ovarian
K-562 leukemia = tested on: K-562 leukemia
KM12 colon = tested on: KM12 colon
LOX IMVI melanoma = tested on: LOX IMVI melanoma
M14 melanoma = tested on: M14 melanoma
MALME-3M melanoma = tested on: MALME-3M melanoma
MCF7 breast = tested on: MCF7 breast
MDA-MB-231 breast = tested on: MDA-MB-231 breast
MDA-MB-435 = tested on: MDA-MB-435
MDA-N = tested on: MDA-N
MOLT-4 leukemia = tested on: MOLT-4 leukemia
NCI-H226 lung = tested on: NCI-H226 lung
NCI-H23 lung = tested on: NCI-H23 lung
NCI-H460 lung = tested on: NCI-H460 lung
NCI-H522 lung = tested on: NCI-H522 lung
NCI/ADR-RES ovarian = tested on: NCI/ADR-RES ovarian
OVCAR-3 ovarian = tested on: OVCAR-3 ovarian
OVCAR-4 ovarian = tested on: OVCAR-4 ovarian
OVCAR-5 ovarian = tested on: OVCAR-5 ovarian
OVCAR-8 ovarian = tested on: OVCAR-8 ovarian
RXF 393 renal = tested on: RXF 393 renal
SF-268 CNS = tested on: SF-268 CNS
SF-295 CNS = tested on: SF-295 CNS
SF-539 CNS = tested on: SF-539 CNS
SK-MEL-28 melanoma = tested on: SK-MEL-28 melanoma
SK-OV-3 ovarian = tested on: SK-OV-3 ovarian
SN12C renal = tested on: SN12C renal
SNB-19 CNS = tested on: SNB-19 CNS
SNB-75 CNS = tested on: SNB-75 CNS
SR leukemia = tested on: SR leukemia
SW-620 colon = tested on: SW-620 colon
T-47D breast = tested on: T-47D breast
TK-10 renal = tested on: TK-10 renal
U251 CNS = tested on: U251 CNS
UACC-257 melanoma = tested on: UACC-257 melanoma
UACC-62 melanoma = tested on: UACC-62 melanoma
PC-3 prostate = tested on: PC-3 prostate
RPMI-8226 leukemia = tested on: RPMI-8226 leukemia
SK-MEL-2 melanoma = tested on: SK-MEL-2 melanoma
SK-MEL-5 melanoma = tested on: SK-MEL-5 melanoma
UO-31 renal = tested on: UO-31 renal

## CCOC(=O)c1c(SC(=O)C(C)(C)Oc2ccc(Cl)cc2)n(-c2ccccc2)c(=S)n(-c2ccccc2)c1=O
786-0 renal
  TGI: > 100 µM
A498 renal
  TGI: 98.9 µM
A549 NSCLC
  TGI: 65.3 µM
ACHN renal
  TGI: 44.4 µM
CAKI-1 renal
  TGI: > 100 µM
CCRF-CEM leukemia
  TGI: 75.5 µM
COLO 205 colon
  TGI: 39.3 µM
DU-145 prostate
  TGI: > 100 µM
EKVX NSCLC
  TGI: > 100 µM
HCC-2998 colon
  TGI: > 100 µM
HCT-116 colon
  TGI: 49 µM
HCT-15 colon
  TGI: > 100 µM
HL-60(TB) leukemia
  TGI: > 100 µM
HOP-62 NSCLC
  TGI: 60.1 µM
HOP-92 NSCLC
  TGI: > 100 µM
HS 578T breast
  TGI: > 100 µM
HT29 colon
  TGI: 66.4 µM
IGROV1 ovarian
  TGI: 36 µM
K-562 leukemia
  TGI: > 100 µM
KM12 colon
  TGI: 50 µM
LOX IMVI melanoma
  TGI: > 100 µM
M14 melanoma
  TGI: > 100 µM
MALME-3M melanoma
  TGI: 72.7 µM
MCF7 breast
  TGI: 57.2 µM
MDA-MB-231 breast
  TGI: 47.9 µM
MDA-MB-435
  TGI: > 100 µM
MDA-N
  TGI: > 100 µM
MOLT-4 leukemia
  TGI: 58 µM
NCI-H226 lung
  TGI: > 100 µM
NCI-H23 lung
  TGI: > 100 µM
NCI-H460 lung
  TGI: 52.8 µM
NCI-H522 lung
  TGI: 84.3 µM
NCI/ADR-RES ovarian
  TGI: > 100 µM
OVCAR-3 ovarian
  TGI: > 100 µM
OVCAR-4 ovarian
  TGI: > 100 µM
OVCAR-5 ovarian
  TGI: > 100 µM
OVCAR-8 ovarian
  TGI: 42.1 µM
RXF 393 renal
  TGI: 73.4 µM
SF-268 CNS
  TGI: 43.9 µM
SF-295 CNS
  TGI: > 100 µM
SF-539 CNS
  TGI: 41.7 µM
SK-MEL-28 melanoma
  TGI: > 100 µM
SK-OV-3 ovarian
  TGI: > 100 µM
SN12C renal
  TGI: 67.8 µM
SNB-19 CNS
  TGI: > 100 µM
SNB-75 CNS
  TGI: > 100 µM
SR leukemia
  TGI: 52.3 µM
SW-620 colon
  TGI: 55.2 µM
T-47D breast
  TGI: > 100 µM
TK-10 renal
  TGI: > 100 µM
U251 CNS
  TGI: 41 µM
UACC-257 melanoma
  TGI: > 100 µM
UACC-62 melanoma
  TGI: > 100 µM

## O=C(NC/C(Cl)=C/Cl)Nc1c2ccccc2nc2ccccc12
786-0 renal
  TGI: > 100 µM
A498 renal
  TGI: > 100 µM
A549 NSCLC
  TGI: > 100 µM
ACHN renal
  TGI: > 100 µM
CAKI-1 renal
  TGI: > 100 µM
COLO 205 colon
  TGI: > 100 µM
DU-145 prostate
  TGI: > 100 µM
EKVX NSCLC
  TGI: > 100 µM
HCC-2998 colon
  TGI: > 100 µM
HCT-116 colon
  TGI: > 100 µM
HCT-15 colon
  TGI: > 100 µM
HOP-62 NSCLC
  TGI: > 100 µM
HOP-92 NSCLC
  TGI: > 100 µM
HS 578T breast
  TGI: > 100 µM
HT29 colon
  TGI: > 100 µM
IGROV1 ovarian
  TGI: > 100 µM
KM12 colon
  TGI: > 100 µM
LOX IMVI melanoma
  TGI: > 100 µM
M14 melanoma
  TGI: > 100 µM
MALME-3M melanoma
  TGI: > 100 µM
MCF7 breast
  TGI: > 100 µM
MDA-MB-231 breast
  TGI: 80.1 µM
MDA-MB-435
  TGI: > 100 µM
MDA-N
  TGI: > 100 µM
MOLT-4 leukemia
  TGI: > 100 µM
NCI-H226 lung
  TGI: > 100 µM
NCI-H23 lung
  TGI: > 100 µM
NCI-H460 lung
  TGI: > 100 µM
NCI-H522 lung
  TGI: > 100 µM
NCI/ADR-RES ovarian
  TGI: > 100 µM
OVCAR-3 ovarian
  TGI: > 100 µM
OVCAR-4 ovarian
  TGI: > 100 µM
OVCAR-5 ovarian
  TGI: > 100 µM
OVCAR-8 ovarian
  TGI: > 100 µM
PC-3 prostate
  TGI: > 100 µM
RPMI-8226 leukemia
  TGI: > 100 µM
RXF 393 renal
  TGI: > 100 µM
SF-268 CNS
  TGI: > 100 µM
SF-295 CNS
  TGI: > 100 µM
SF-539 CNS
  TGI: 93.2 µM
SK-MEL-2 melanoma
  TGI: > 100 µM
SK-MEL-28 melanoma
  TGI: > 100 µM
SK-MEL-5 melanoma
  TGI: > 100 µM
SK-OV-3 ovarian
  TGI: > 100 µM
SN12C renal
  TGI: > 100 µM
SNB-19 CNS
  TGI: > 100 µM
SNB-75 CNS
  TGI: > 100 µM
SR leukemia
  TGI: > 100 µM
SW-620 colon
  TGI: > 100 µM
T-47D breast
  TGI: > 100 µM
TK-10 renal
  TGI: > 100 µM
U251 CNS
  TGI: > 100 µM
UACC-257 melanoma
  TGI: > 100 µM
UACC-62 melanoma
  TGI: > 100 µM
UO-31 renal
  TGI: > 100 µM
